One test has as its target T1, CDK16 (Homo sapiens, UniProt Q00536).
T1 construct: purchased in-house DSF panel (SGC Frankfurt)
The test is described as follows: DSF. Type of test: binding. The conditions noted are these: 10 μM compound. The text has this:
(§1) To investigate the selectivity profile of the different series, a differential scanning fluorimetry (DSF) assay was used. This assay offers a rapid and sensitive screening method that determines the denaturation temperature of a protein in absence and presence of a compound. This assay format measures the fluorescence of a dye, which depends on the folding state of the protein. The difference between the melting temperature (ΔTm) in the absence and presence of the compound represents the binding strength to the protein.
(§2) Measurements were performed in duplicates.

The next test concerns the target T2, CDK2 (Homo sapiens, UniProt P24941).
T2 construct: purchased in-house DSF panel (SGC Frankfurt)
The test is described as follows: DSF. Format: binding. The note with it: 10 μM compound.
From the text: as §1, §2

A further test concerns the target T3, CDK16/Cyclin Y (Homo sapiens, UniProt Q00536).
T3 construct: Full-length kinases were obtained as plasmids cloned in frame with a terminal NanoLuc-fusion; CS1810C178 (CCNY); host or cells: HEK293T
The test is described as follows: NanoBRET. Type of test: cell-based. The note with it: Figure 7, 11-point dose-response in duplicates; read-out: NanoBRET EC50 ± SEM against CDK16. As for the experimental part:
Next, to specifically quantify the outcome of the cellular activity of the compounds, a NanoBRET cellular target engagement assay was performed. The determination of the cellular potency on CDK16 correlated well with the corresponding DSF assay data (Figure S2). […] As mentioned before, the exchange from a methyl ester to an iso-propyl or tert-butyl ester led to a higher stabilization of the kinase in the DSF assay, which correlated with an increase in cellular potency as determined in the NanoBRET assay. […] The number of potential off-targets was low with 1 and 2 kinases with ΔTm >5 °C (Figure 4), highlighting these inhibitors for more comprehensive selectivity studied within the CDK and particular the TAIRE subfamily.
The assay was performed as described previously. In brief: Full-length kinases were obtained as plasmids cloned in frame with a terminal NanoLuc-fusion (Promega, Madison, WI, USA), as specified in table (Table S6). Plasmids were transfected into HEK293T cells using FuGENE HD (Promega, E2312) and proteins were allowed to express for 20h. Serially diluted inhibitor and NanoBRET Kinase Tracer (Promega) at a concentration determined previously as the KD,app (Table S5) were pipetted into white 384-well plates (Greiner 781207) using an Echo acoustic dispenser (Labcyte, San Jose, CA, USA). The corresponding protein-transfected cells were added and reseeded at a density of 2.5 × 10^5 cells/mL after trypsinization and resuspending in Opti-MEM without phenol red (Life Technologies, Carlsbad, CA, USA). The system was allowed to equilibrate for 2 h at 37 °C/5% CO2 prior to BRET measurements. To measure BRET, NanoBRET NanoGlo Substrate + Extracellular NanoLuc Inhibitor (Promega, N2540) was added as per the manufacturer’s protocol, and filtered luminescence was measured on a PHERAstar plate reader (BMG Labtech, Ortenberg, Germany) equipped with a luminescence filter pair (450 nm BP filter (donor) and 610 nm LP filter (acceptor)). Competitive displacement data were then graphed using GraphPad Prism 9 software using a normalized 3-parameter curve fit with the following equation: Y = 100/(1 + 10^(X–LogEC50)).
For orientation: Bioluminescence resonance energy transfer reports proximity on the nanometre scale.

Another test deals with GSK3B (Homo sapiens, UniProt P49841). The test is described as follows: DSF. Type of test: binding. On the set-up: purchased in-house DSF panel (SGC Frankfurt). The note with it: 10 μM compound.
From the text: as §1, §2

T3 sequence (Q00536 whole entry, the tested form may be a part): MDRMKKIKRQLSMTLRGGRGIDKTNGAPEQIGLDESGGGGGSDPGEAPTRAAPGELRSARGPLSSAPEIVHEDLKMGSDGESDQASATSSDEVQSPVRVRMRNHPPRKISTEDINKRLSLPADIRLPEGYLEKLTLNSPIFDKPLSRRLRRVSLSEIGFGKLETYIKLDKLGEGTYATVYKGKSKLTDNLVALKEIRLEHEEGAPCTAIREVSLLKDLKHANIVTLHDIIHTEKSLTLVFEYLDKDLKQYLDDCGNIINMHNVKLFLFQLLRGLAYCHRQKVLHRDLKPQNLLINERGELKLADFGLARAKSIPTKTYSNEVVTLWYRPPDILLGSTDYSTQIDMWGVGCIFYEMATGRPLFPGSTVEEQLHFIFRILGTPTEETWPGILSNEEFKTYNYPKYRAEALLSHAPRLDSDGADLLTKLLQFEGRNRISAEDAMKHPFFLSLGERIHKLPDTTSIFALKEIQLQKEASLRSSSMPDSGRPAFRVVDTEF
T3 sequence (Q8ND76 2-341 partner limits assumed): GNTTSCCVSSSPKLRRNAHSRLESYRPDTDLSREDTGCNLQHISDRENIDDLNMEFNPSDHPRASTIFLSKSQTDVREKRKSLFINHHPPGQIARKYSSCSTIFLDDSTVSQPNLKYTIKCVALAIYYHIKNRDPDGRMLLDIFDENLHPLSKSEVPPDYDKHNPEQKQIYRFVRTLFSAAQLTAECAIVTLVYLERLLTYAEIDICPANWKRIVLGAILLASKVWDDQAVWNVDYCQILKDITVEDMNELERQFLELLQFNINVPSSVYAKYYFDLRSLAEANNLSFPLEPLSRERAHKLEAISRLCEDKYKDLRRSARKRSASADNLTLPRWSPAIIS
T1 sequence (Q00536 163-478): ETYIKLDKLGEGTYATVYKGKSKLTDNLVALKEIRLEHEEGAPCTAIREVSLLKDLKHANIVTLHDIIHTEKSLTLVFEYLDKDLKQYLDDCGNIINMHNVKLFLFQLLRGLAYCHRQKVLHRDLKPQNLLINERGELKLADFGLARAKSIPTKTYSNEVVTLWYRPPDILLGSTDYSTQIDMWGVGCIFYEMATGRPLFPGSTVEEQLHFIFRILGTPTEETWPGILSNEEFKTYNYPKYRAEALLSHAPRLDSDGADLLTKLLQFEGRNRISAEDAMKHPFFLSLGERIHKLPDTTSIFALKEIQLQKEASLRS
GSK3B, sequence (P49841 35-386): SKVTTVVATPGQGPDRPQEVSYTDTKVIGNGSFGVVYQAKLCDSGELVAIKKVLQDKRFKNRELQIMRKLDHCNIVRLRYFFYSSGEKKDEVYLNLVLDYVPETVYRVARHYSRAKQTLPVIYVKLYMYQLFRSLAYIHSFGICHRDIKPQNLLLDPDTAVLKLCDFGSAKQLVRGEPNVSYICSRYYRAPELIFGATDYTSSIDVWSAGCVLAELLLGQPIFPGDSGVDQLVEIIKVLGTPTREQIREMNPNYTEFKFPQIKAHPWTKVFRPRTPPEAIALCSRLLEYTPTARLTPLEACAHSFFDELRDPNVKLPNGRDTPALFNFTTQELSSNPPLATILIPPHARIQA

The ΔTm is the shift of the melting midpoint relative to a reference. For orientation: EC50 means the concentration giving half of the maximal effect. With `CC(C)(C)OC(=O)NCCc1ccc(Nc2nccc(Nc3cc(C4CC4)n[nH]3)n2)cc1` [11a, tert-butyl 4-((4-((3-cyclopropyl-1H-pyrazol-5-yl)amino)pyrimidin-2-yl)amino)phenethyl-carbamate], the ΔTm at 10 µM worked out at 8.7 °C on CDK16, 12.3 °C at CDK2 and 8.2 ± 0.1 °C at GSK3B. Further, the EC50 at CDK16/Cyclin Y is 35 nM.

Take `CC(C)(C)OC(=O)NCCc1cccc(Nc2nccc(Nc3cc(C4CC4)n[nH]3)n2)c1` [11b, tert-butyl 3-((4-((3-cyclopropyl-1H-pyrazol-5-yl)amino)pyrimidin-2-yl)amino)phenethyl-carbamate]: the results for the ΔTm at 10 µM on CDK16, on CDK2 and on GSK3B were 6.3 ± 0.3 °C, 8.2 ± 0.1 °C and 7.2 ± 0.2 °C, respectively. Besides, the half-maximal effective concentration (EC50) at CDK16/Cyclin Y was 124 ± 10.4 nM.

As to `CC(C)(C)OC(=O)NCCCCCNc1nccc(Nc2cc(C3CC3)[nH]n2)n1` [11c, tert-butyl (5-((4-((3-cyclopropyl-1H-pyrazol-5-yl)amino)pyrimidin-2-yl)amino)pentyl) carbamate], the ΔTm at 10 µM came out at 9.4 °C at CDK16, 10.4 ± 0.3 °C on CDK2 and 7.1 ± 0.2 °C at GSK3B. The EC50 on CDK16/Cyclin Y amounted to 33 ± 0.1 nM.

Consider `CC(C)(C)OC(=O)NCCOCCNc1nccc(Nc2cc(C3CC3)n[nH]2)n1` [11d, tert-butyl (2-(2-((4-((3-cyclopropyl-1H-pyrazol-5-yl)amino)pyrimidin-2-yl)amino)ethoxy)-ethyl)carbamate], for which the values for the ΔTm at 10 µM at CDK16, at CDK2 and on GSK3B were 7.3 ± 0.1 °C, 6.3 ± 0.2 °C and 5.9 ± 0.2 °C, respectively. In addition, the EC50 on CDK16/Cyclin Y turned out to be 67 ± 1.3 nM.

As to `CC(C)(C)OC(=O)NCCCCCCNc1nccc(Nc2cc(C3CC3)n[nH]2)n1` [11e, tert-butyl (6-((4-((3-cyclopropyl-1H-pyrazol-5-yl)amino)pyrimidin-2-yl)amino)hexyl)-carbamate], the ΔTm at 10 µM at CDK16 is 8.9 ± 0.3 °C; on CDK2, 11.2 ± 0.3 °C; at GSK3B, 6.8 °C. For the same compound, the EC50 at CDK16/Cyclin Y was found to be 36 ± 1.2 nM.

In the case of `CC(C)(C)OC(=O)NCc1ccc(CNc2nccc(Nc3cc(C4CC4)n[nH]3)n2)cc1` [11f, tert-butyl 4-(((4-((3-cyclopropyl-1H-pyrazol-5-yl)amino)pyrimidin-2-yl)amino)methyl)-benzylcarbamate], the values for the ΔTm at 10 µM on CDK16, at CDK2 and at GSK3B were 7.6 ± 0.2 °C, 8.4 ± 0.1 °C and 6.3 ± 0.1 °C, respectively. On CDK16/Cyclin Y, the EC50 stood at 110 ± 9.7 nM.

As to `Cc1cnc(Nc2ccc(CCNC(=O)OC(C)(C)C)cc2)nc1Nc1cc(C2CC2)n[nH]1` [12a, tert-butyl 4-((4-((3-cyclopropyl-1H-pyrazol-5-yl)amino)-5-methylpyrimidin-2-yl)amino)-phenethylcarbamate], the values for the shift in melting temperature (ΔTm) at 10 µM on CDK16, on CDK2 and on GSK3B were 6.2 ± 0.1 °C, 8.7 ± 0.1 °C and 5.7 ± 0.2 °C, respectively. Further, the EC50 on CDK16/Cyclin Y is 172 ± 20.9 nM.

For `Cc1cnc(Nc2cccc(CCNC(=O)OC(C)(C)C)c2)nc1Nc1cc(C2CC2)n[nH]1` [12b, tert-butyl 3-((4-((3-cyclopropyl-1H-pyrazol-5-yl)amino)-5-methylpyrimidin-2-yl)amino)-phenethylcarbamate], the ΔTm at 10 µM on CDK16 is 3.7 ± 0.1 °C; at CDK2, 4.7 °C; at GSK3B, 5.1 °C. The EC50 at CDK16/Cyclin Y was determined as 1100 ± 44.5 nM.

On to `Cc1cnc(NCCCCCNC(=O)OC(C)(C)C)nc1Nc1cc(C2CC2)n[nH]1` [12c, tert-butyl (5-((4-((3-cyclopropyl-1H-pyrazol-5-yl)amino)-5-methylpyrimidin-2-yl)amino)-pentyl)carbamate], for which the ΔTm at 10 µM stood at 6.5 ± 0.1 °C on CDK16, 7.2 ± 0.2 °C at CDK2 and 6.1 ± 0.1 °C at GSK3B. Besides, the EC50 on CDK16/Cyclin Y is 176 ± 3 nM.

With `Cc1cnc(NCCOCCNC(=O)OC(C)(C)C)nc1Nc1cc(C2CC2)n[nH]1` [12d, tert-butyl (2-(2-((4-((3-cyclopropyl-1H-pyrazol-5-yl)amino)-5-methylpyrimidin-2-yl)amino)ethoxy)ethyl)carbamate], the values for the ΔTm at 10 µM at CDK16, at CDK2 and at GSK3B were 5.8 ± 0.1 °C, 5.3 °C and 6.6 °C, respectively. The EC50 on CDK16/Cyclin Y is 619 ± 32 nM.

`Cc1cnc(NCCCCCCNC(=O)OC(C)(C)C)nc1Nc1cc(C2CC2)n[nH]1` [12e, tert-butyl (6-((4-((3-cyclopropyl-1H-pyrazol-5-yl)amino)-5-methylpyrimidin-2-yl)amino)hexyl)carbamate]: the values for the ΔTm at 10 µM at CDK16, on CDK2 and on GSK3B were 6.3 °C, 8.1 ± 0.4 °C and 5.8 ± 0.2 °C, respectively. At CDK16/Cyclin Y, the EC50 is 191 ± 5.9 nM.

On to `CC(C)(C)OC(=O)NCCc1ccc(Nc2ncc(Cl)c(Nc3cc(C4CC4)n[nH]3)n2)cc1` [13a, tert-butyl 4-((5-chloro-4-((3-cyclopropyl-1H-pyrazol-5-yl)amino)pyrimidin-2-yl)amino)phenethylcarbamate], for which the ΔTm at 10 µM was 3.2 °C at CDK16, 5.9 °C on CDK2 and 4.6 °C on GSK3B. The EC50 on CDK16/Cyclin Y worked out at 354 ± 60.5 nM.

Take `CC(C)(C)OC(=O)NCCCCCNc1ncc(Cl)c(Nc2cc(C3CC3)n[nH]2)n1` [13c, tert-butyl (5-((5-chloro-4-((3-cyclopropyl-1H-pyrazol-5-yl)amino)pyrimidin-2-yl)amino)pentyl)carbamate]: the ΔTm at 10 µM was found to be 3.2 °C on CDK16, 5.1 ± 0.3 °C at CDK2 and 5.9 ± 0.3 °C on GSK3B. The EC50 on CDK16/Cyclin Y was 914 ± 11 nM.

For the compound `COC(=O)c1cc(Nc2ccnc(Nc3ccc(CCNC(=O)OC(C)(C)C)cc3)n2)[nH]n1` [21a, methyl 5-((2-((4-(2-((tert-butoxycarbonyl)amino)ethyl)phenyl)amino)pyrimidin-4-yl)amino)-1H-pyrazole-3-carboxylate], the values for the ΔTm at 10 µM on CDK16, on CDK2 and on GSK3B were 4.3 ± 0.4 °C, 3.1 ± 0.2 °C and 7.8 ± 0.2 °C, respectively. The EC50 on CDK16/Cyclin Y worked out at 652 ± 15.6 nM.

Regarding `COC(=O)c1cc(Nc2ccnc(NCCCCCNC(=O)OC(C)(C)C)n2)[nH]n1` [21c, methyl 5-((2-((5-((tert-butoxycarbonyl)amino)pentyl)amino)pyrimidin-4-yl)amino)-1H-pyrazole-3-carboxylate], the ΔTm at 10 µM worked out at 8.5 ± 0.2 °C at CDK16, 5.6 °C at CDK2 and 8.6 °C on GSK3B. Further, the EC50 on CDK16/Cyclin Y came to 107 nM.

On to `COC(=O)c1cc(Nc2ccnc(NCc3ccc(CNC(=O)OC(C)(C)C)cc3)n2)[nH]n1` [21g, methyl 5-((2-((4-(((tert-butoxycarbonyl)amino)methyl)benzyl)amino)pyrimidin-4-yl)amino)-1H-pyrazole-3-carboxylate], for which the ΔTm at 10 µM on CDK16 was found to be 5.3 ± 0.1 °C; at CDK2, 3.3 ± 0.1 °C; on GSK3B, 7.7 ± 0.1 °C. For the same compound, the EC50 at CDK16/Cyclin Y was determined as 879 ± 5.5 nM.

For `COC(=O)c1cc(Nc2nc(Nc3ccc(CCNC(=O)OC(C)(C)C)cc3)ncc2Cl)[nH]n1` [22a, methyl 5-((2-((4-(2-((tert-butoxycarbonyl)amino)ethyl)phenyl)amino)-5-chloropyrimidin-4-yl)amino)-1H-pyrazole-3-carboxylate], the ΔTm at 10 µM was found to be 0.3 ± 0.1 °C on CDK16, 2 ± 0.3 °C on CDK2 and 3.3 ± 0.5 °C on GSK3B. For the same compound, the EC50 at CDK16/Cyclin Y amounted to 1860 ± 276 nM.

For `COC(=O)c1cc(Nc2nc(Nc3cccc(CCNC(=O)OC(C)(C)C)c3)ncc2Cl)[nH]n1` [22b, methyl 5-((2-((3-(2-((tert-butoxycarbonyl)amino)ethyl)phenyl)amino)-5-chloropyrimidin-4-yl)amino)-1H-pyrazole-3-carboxylate], the ΔTm at 10 µM on CDK16 came out at 0.8 ± 0.1 °C; at CDK2 it was 2.1 ± 0.1 °C; at GSK3B it was 3.9 ± 0.6 °C. Besides, the EC50 on CDK16/Cyclin Y worked out at 3190 ± 589 nM.

For the compound `COC(=O)c1cc(Nc2nc(NCCCCCNC(=O)OC(C)(C)C)ncc2Cl)[nH]n1` [22c, methyl 5-((2-((5-((tert-butoxycarbonyl)amino)pentyl)amino)-5-chloropyrimidin-4-yl)amino)-1H-pyrazole-3-carboxylate], the ΔTm at 10 µM at CDK16 amounted to 1 ± 0.1 °C; on CDK2 it was 1.5 ± 0.1 °C; at GSK3B it was 4.8 ± 0.2 °C. The EC50 at CDK16/Cyclin Y stood at 8320 ± 227 nM.

Source of the values: paper PMC9736855, “Discovery of 3-Amino-1H-pyrazole-Based Kinase Inhibitors to Illuminate the Understudied PCTAIRE Family” (International Journal of Molecular Sciences, 2022).
